From patent US5342842A, “Pyrimidone derivatives and analogs in the treatment of asthma or certain skin disorders” (Pfizer Inc., priority 1992, dated 1994) come the findings set out here.

The target in assay [1] is Pulmonary Phosphodiesterase (PDEIV). The assay can be described thus: Inhibition of pulmonary phosphodiesterase (PDEIV) from guinea pig lung, [3H]cAMP hydrolysis. The class given is biochemical. Conditions: 1 μM [3H]-cAMP, 37° C., 10 minutes, 1% DMSO, read-out: IC50, concentration which inhibits 50% of specific hydrolysis of [3H]cAMP to [3H]5' AMP. The method, then:
Lung tissue from guinea pigs was placed in a homogenization buffer solution (20 mM Bistris, 5 mM 2-mercaptoethanol, 2 mM benzamidine, 2 mM EDTA, 50 mM sodium acetate, pH 6.5) at a concentration of 10 ml/gm of tissue. The tissue was homogenized using a Tekmar Tissumizer at full speed for 10 seconds. Phenylmethylsulfonyl fluoride (PMSF, 50 mM in 2-propanol) was added to the buffer immediately prior to homogenization to give a final PMSF concentration of 50μM. The homogenate was centrifuged at 12,000×g for 10 minutes at 4° C. The supernatant was filtered through gauze and glass wool and then applied to a 17×1.5 cm column of DEAE-Sepharose CL-6B, pre-equilibrated with homogenization buffer, at 4° C. A flow rate of 1 ml/min was used. After the supernatant had passed through the column, the column is washed with a volume of homogenization buffer at least two times that of the supernatant. […] Fractions were saved based on specific PDEIV activity, determined by [^3 H]cAMP hydrolysis and the ability of a […]. […]
The reaction tubes were shaken and placed in a water bath (37° C.) for 10 minutes, at which time the reaction was stopped by placing the tubes in a boiling water bath for 2 minutes. […] After vortexing, 1 ml of the elution was added to 3 ml Atomlight scintillation fluid in an appropriate vial, vortexed, and counted for [^3 H].
Percent inhibition is determined by the formula: [formula] […]

For assay [2], the system named is human PDE. Put plainly: Inhibition of PDE in intact human peripheral blood leukocyte preparation (human PDE assays, Dr. Hanifin). The class given is cell-based. An excerpt: (§1) See Grewe et al., J. Allergy Clin. Immunol., v. 70, pp. 452-457, 1982. […] Dr. Hanifin has a source of human PDE isolated from mononuclear leukocyte. They were approached and readily agreed to test 5-[3-(exo-bicyclo[2.2.1]hept-2-yloxy)-4-methoxyphenyl]-3,4,5,6-tetrahydropyrimidin-2(1H)-one in their human PDE assays (see Cooper et al., cited above).

In assay [3] the test system is Eosinophil Migration into Sensitized Lung Tissue. The assay can be described thus: Inhibition of eosinophil migration into sensitized lung tissue challenged with antigen in guinea pigs (specific EPO response in lung lavage). The format is in vivo, guinea pig. The following applies: Cavia porcellus, po, P.O., guinea pigs sensitized with anti-OA IgG1, ovalbumin aerosol challenge, lavage after 18 hours. The method, then: Normal Hartley guinea pigs (300-350 grams) delivered from Charles River Laboratories were housed 5-7 days before sensitization. Guinea pigs were then sensitized with 0.5 mg/kg anti-OA IgG1 or saline as control. After 48-72 hours, guinea pigs were dosed P.O. in groups of six animals each with compounds at up to 32 mg/kg using 2% Tween 80 as vehicle. After 1-1.5 hours the animals were injected i.p. with 5 mg/kg pyrilamine. Thirty minutes following pyrilamine administration, animals were exposed to 10 minutes of a 0.1% ovalbumin (OA) aerosol followed by a 15 minute cloud decay period in a Tri-R Airborne Infection Apparatus (Compression air flow =20 L/min, main air flow =8.4 L/min). Guinea pigs were removed from the apparatus and caged for 18 hours prior to sacrifice and the following lung lavage procedure. […]
The aliquoted sample with Triton was diluted with 1 ml PBS/0.1% Triton buffer (pH 7.0). […] The O.D. of the mixture was measured at 490 nm, with background O.D. (blank tube) subtracted out.
Duplicate O.D. readings were averaged to obtain a single value for each animal. Average O.D. ± standard error is calculated using the six obtained values within each group of animals. Specific EPO response due to antigen challenge is calculated by: [formula] Percent inhibition of specific EPO response due to drug pretreatment is calculated by: [formula]

Assay [4] deals with antigen-induced skin edema. The assay can be described thus: Inhibition of skin edema in guinea pigs sensitized to ovalbumin. The class given is in vivo, guinea pig. Conditions: 32 mg/Kg oral. Here is the method: Four guinea pigs (Hartley, male, 350-400 g) were sensitized with anti-ovalbumin IgG1 antibody. Two guinea pigs were orally dosed with 32 mg/Kg of the test compound and two other guinea pigs were dosed with vehicle (2% Tween-80). One-hour after dosing, each guinea pig was injected intraveneously with 1 ml of Evan Blue (7 mg/ml) and then his skin was challenged intradermally with 0.1 ml of ovalbumin (0.1%) or PBS. Twenty minutes after challenge, the skin was removed and skin edematous site (circular blue spots at challenge sites) was examined visually.

Assay [5] relates to human PDE. The assay can be described thus: Inhibition of PDE in leukocyte homogenate preparation (human PDE assays, Dr. Hanifin). The format is biochemical.
Text: as §1

A word on the ED50: it is the midpoint of the dose-response relation. In the case of `COc1ccc(C2CNC(=O)NC2)cc1O[C@@H]1C[C@H]2CC[C@@H]1C2` (relative stereo) [5-[3-(exo-bicyclo[2.2.1]hept-2-yloxy)-4-methoxyphenyl]-3,4,5,6-tetrahydropyrimidin-2(1H)-one], the results for the IC50 in assay [1], in assay [2] (intact human peripheral blood leukocytes) and in assay [5] (human leukocyte homogenate preparation) were 500 nM, 300 nM and 200 nM, respectively. Besides, the “potency in inhibiting PDE compared to Ro-20-1724” value is given as “even greater potency than Ro-20-1724” in assay [2] (intact human peripheral blood leukocyte preparation, compared to Ro-20-1724) and “even greater potency than Ro-20-1724” in assay [5] (leukocyte homogenate preparation, compared to Ro-20-1724). For the same compound, the ED50 in assay [3] is 10 mg/kg. In addition, in assay [4] (two guinea pigs, intradermal ovalbumin (0.1%), 20 minutes after challenge, visual examination), the “intensity and area of blue spots at antigen-challenged skin sites as compared to vehicle-dosed animals” value is “markedly reduced”. Also, in assay [4] (conclusion of the test), the “effectiveness against antigen-induced skin edema in guinea pigs” value was “effective against antigen-induced skin edema in guinea pigs”.
